These results are taken from paper PMC13231895 (Antimicrobial Agents and Chemotherapy, 2026).

Each structure is given as a SMILES string.

The data set can be described thus: Plasma pharmacokinetics after single […] IV infusion of nacubactam 2 g coadministered with meropenem 2 g (Phase 1). Particulars: n = 21, geometric mean (CV%), 2 g nacubactam + 2 g meropenem IV. It is filed as in vivo, healthy adult male and female volunteers.

Procedure: The study consisted of a screening visit (Days −28 to −1), a treatment and sampling period (Day 1), and a safety follow-up visit (Days 7–14). […] The two drugs were administered concurrently as separate solutions through two separate lines via a large bore, double-lumen catheter, under the supervision of study personnel. […] While all participants received the same study drug treatment and followed the same blood sampling scheme, each individual was assigned to one of five possible timepoints (2, 3, 4, 6, or 8 h after the start of study drug administration) for the BAL procedure. Equal numbers of participants were assigned to each timepoint, and assignment of individual participants was at the discretion of the investigator. […] An additional plasma sample was taken at the same time as part of the BAL procedure to measure urea. The plasma samples were stored at −80°C pending analysis. […] PK parameters were estimated by non-compartmental analysis using Phoenix WinNonlin (version 6.4; Certara USA, Inc.) by Covance.

As for `NCCONC(=O)[C@@H]1CC[C@@H]2CN1C(=O)N2OS(=O)(=O)O` [Nacubactam], the “AUC0–8h” value was 275 (19) µg·h/mL.
